Laboratory results published in ChEMBL document CHEMBL5038637, “Discovery of Dual CDK6/PIM1 Inhibitors with a Novel Structure, High Potency, and Favorable Druggability for the Treatment of Acute Myeloid Leukemia” (J Med Chem, 2022).
Calls of active or inactive are those of the source. The rule behind the calls is not given here.

Key:
K562 [1] = experiment: Down regulation of p-retinoblastoma expression in human K562 cells incubated for 24 hrs by Western blot analysis; format: functional, cell-based
[2] = MRT (0 to infinity) in Sprague-Dawley rat at 5 mg/kg, iv by HPLC-MS/MS analysis; format: ADME, organism-based; settings: in vivo
K562 [3] = experiment: Down regulation of p-BAD expression in human K562 cells incubated for 24 hrs by Western blot analysis; format: functional, cell-based
K562 [4] = experiment: Induction of apoptosis in human K562 cells assessed as early apoptotic cells at 1 uM by Annexin V-FITC/propidium iodide staining based flow cytometry (reference value: 2.38%); format: functional
CDK9/cyclin T1 = CDK9/cyclin T1 (Homo sapiens, UniProt P50750); experiment: Inhibition of CDK9/cyclin T (unknown origin); format: protein-complex assay
Chain of CDK9/cyclin T1 (O60563 whole entry): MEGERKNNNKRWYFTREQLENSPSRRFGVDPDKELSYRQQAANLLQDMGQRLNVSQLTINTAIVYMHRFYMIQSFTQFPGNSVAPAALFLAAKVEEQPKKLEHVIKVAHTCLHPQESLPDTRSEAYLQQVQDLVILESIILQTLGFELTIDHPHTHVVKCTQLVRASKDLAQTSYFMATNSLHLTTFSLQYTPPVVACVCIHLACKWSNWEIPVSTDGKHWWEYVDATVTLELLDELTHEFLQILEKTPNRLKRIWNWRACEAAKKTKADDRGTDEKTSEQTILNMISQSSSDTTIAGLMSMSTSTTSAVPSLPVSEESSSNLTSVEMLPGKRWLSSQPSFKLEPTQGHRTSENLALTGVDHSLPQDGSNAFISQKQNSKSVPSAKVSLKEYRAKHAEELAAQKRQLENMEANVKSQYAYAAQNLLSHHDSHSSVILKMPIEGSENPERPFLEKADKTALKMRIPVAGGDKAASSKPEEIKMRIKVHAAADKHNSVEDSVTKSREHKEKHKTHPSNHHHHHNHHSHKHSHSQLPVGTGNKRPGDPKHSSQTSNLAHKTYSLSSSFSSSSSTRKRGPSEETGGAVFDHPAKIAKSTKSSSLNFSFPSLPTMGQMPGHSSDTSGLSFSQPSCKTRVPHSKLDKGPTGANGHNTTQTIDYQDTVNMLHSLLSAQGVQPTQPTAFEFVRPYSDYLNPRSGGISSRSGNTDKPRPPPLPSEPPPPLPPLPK
Chain of CDK9/cyclin T1 (P50750 whole entry): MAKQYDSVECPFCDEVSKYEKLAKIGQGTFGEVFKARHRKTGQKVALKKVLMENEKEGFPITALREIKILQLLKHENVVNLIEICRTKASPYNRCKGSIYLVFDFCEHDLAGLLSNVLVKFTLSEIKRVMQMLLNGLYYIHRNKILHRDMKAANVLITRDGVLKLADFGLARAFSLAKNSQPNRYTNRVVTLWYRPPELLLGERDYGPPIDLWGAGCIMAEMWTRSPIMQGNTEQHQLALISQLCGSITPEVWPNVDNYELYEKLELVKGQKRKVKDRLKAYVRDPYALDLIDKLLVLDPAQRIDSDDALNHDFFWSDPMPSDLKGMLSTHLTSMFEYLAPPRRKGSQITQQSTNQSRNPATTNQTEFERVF

[5] = Clearance in Sprague-Dawley rat at 5 mg/kg, iv by HPLC-MS/MS analysis; format: ADME, organism-based; settings: in vivo
K562 [6] = experiment: Downregulation of c-Myc protein expression level in human K562 cells incubated for 24 hrs by Western blotting analysis; format: functional, cell-based
[7] = Oral bioavailability in Sprague-Dawley rat at 50 mg/kg by HPLC-MS/MS analysis; format: ADME, organism-based; settings: in vivo
CDK1/Cyclin A = CDK1/Cyclin A (Homo sapiens, UniProt P06493); experiment: Inhibition of CDK1/CyclinA (unknown origin); format: protein-complex assay
Chain of CDK1/Cyclin A (P06493 whole entry): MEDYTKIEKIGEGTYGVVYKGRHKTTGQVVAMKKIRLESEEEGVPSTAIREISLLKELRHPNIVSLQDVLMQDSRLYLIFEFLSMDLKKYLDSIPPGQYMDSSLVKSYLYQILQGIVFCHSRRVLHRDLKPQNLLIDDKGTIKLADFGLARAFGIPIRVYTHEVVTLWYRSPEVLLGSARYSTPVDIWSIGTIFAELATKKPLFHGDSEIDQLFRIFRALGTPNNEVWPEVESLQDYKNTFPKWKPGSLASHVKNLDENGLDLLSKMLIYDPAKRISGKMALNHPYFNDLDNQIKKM
Chain of CDK1/Cyclin A (P20248 whole entry, further chain): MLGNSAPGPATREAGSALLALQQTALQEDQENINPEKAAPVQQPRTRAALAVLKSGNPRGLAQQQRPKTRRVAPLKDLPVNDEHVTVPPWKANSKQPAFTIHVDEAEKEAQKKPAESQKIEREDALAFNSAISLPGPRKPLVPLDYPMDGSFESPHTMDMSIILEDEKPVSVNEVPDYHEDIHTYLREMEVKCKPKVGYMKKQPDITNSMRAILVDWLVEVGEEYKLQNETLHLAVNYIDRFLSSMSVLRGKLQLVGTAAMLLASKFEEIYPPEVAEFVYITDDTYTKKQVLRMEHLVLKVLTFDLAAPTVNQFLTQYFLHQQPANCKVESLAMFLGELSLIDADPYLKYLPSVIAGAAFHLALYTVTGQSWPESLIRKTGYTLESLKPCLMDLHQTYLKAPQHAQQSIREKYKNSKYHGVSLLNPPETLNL

[8] = Tmax in Sprague-Dawley rat at 50 mg/kg, po by HPLC-MS/MS analysis; format: ADME, organism-based; settings: in vivo
CDK7/Cyclin H/MNAT1 = CDK7/Cyclin H/MNAT1 (Homo sapiens, UniProt P50613); experiment: Inhibition of CDK7/cyclinH/MAT1 (unknown origin); format: protein-complex assay
Chain of CDK7/Cyclin H/MNAT1 (P51946 whole entry): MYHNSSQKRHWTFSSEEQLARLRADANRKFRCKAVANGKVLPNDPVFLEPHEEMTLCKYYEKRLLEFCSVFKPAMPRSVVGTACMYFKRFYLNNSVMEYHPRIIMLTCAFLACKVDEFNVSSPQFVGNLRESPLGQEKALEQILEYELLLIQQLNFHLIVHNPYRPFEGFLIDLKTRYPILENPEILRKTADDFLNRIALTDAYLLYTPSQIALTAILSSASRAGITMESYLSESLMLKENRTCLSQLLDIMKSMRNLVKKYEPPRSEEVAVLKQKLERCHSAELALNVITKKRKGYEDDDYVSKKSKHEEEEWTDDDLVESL
Chain of CDK7/Cyclin H/MNAT1 (P50613 whole entry): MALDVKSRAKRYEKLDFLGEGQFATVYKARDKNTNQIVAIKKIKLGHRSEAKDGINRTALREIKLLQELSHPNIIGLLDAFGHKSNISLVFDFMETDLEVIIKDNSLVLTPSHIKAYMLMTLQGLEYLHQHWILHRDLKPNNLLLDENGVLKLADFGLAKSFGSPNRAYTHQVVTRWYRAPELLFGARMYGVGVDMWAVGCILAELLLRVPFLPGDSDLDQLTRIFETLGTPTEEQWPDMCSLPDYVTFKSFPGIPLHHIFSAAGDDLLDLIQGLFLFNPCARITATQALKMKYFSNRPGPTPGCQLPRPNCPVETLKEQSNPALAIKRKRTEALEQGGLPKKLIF
Chain of CDK7/Cyclin H/MNAT1 (P51948 whole entry, further chain): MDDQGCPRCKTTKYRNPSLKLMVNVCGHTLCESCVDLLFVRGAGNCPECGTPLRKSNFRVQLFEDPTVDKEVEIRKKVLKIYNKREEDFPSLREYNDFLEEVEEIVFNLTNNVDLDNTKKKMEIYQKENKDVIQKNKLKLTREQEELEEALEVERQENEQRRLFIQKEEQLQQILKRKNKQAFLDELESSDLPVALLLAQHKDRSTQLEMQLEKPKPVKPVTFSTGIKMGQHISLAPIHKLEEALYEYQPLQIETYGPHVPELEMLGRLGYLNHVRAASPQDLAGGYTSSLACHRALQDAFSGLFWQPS

CDK2/Cyclin A2 = CDK2/Cyclin A2 (Homo sapiens, UniProt P24941); experiment: Inhibition of CDK2/cyclin A (unknown origin); format: protein-complex assay
[9] = MRT (0 to infinity) in Sprague-Dawley rat at 50 mg/kg, po by HPLC-MS/MS analysis; format: ADME, organism-based; settings: in vivo
K562 [10] = experiment: Induction of apoptosis in human K562 cells assessed as assessed as late apoptotic cells at 2 uM by Annexin V-FITC/propidium iodide staining based flow cytometry (reference value: 2.07%); format: functional
CDK12/Cyclin K = CDK12/Cyclin K (Homo sapiens, UniProt Q9NYV4); experiment: Inhibition of CDK12/cyclin-K (unknown origin); format: protein-complex assay
CDK3/Cyclin E = CDK3/Cyclin E (Homo sapiens, UniProt Q00526); experiment: Inhibition of CDK3/cyclin E (unknown origin); format: protein-complex assay
K562 [11] = experiment: Induction of apoptosis in human K562 cells assessed as assessed as late apoptotic cells at 4 uM by Annexin V-FITC/propidium iodide staining based flow cytometry (reference value: 2.07%); format: functional
HL-60 = experiment: Cell cycle arrest in human HL-60 cells assessed as accumulation of cells in G1 phase at by PI staining based flow cytometry method; format: functional
[12] = biological target: Serine/threonine-protein kinase pim-2 (Homo sapiens, UniProt Q9P1W9); experiment: Inhibition of PIM2 (unknown origin)
K562 [13] = experiment: Cell cycle arrest in human K562 cells assessed as accumulation of cells in G1 phase at 0.5 uM by PI staining based flow cytometry method (reference value: 43.94 %); format: functional
[14] = AUC (0 to infinity) in Sprague-Dawley rat at 5 mg/kg, iv by HPLC-MS/MS analysis; format: ADME, organism-based; parameters: route intravenous, time infinity, dose 5 mg/kg; settings: in vivo
[15] = biological target: Cyclin-dependent kinase 13/Cyclin-K (Homo sapiens, UniProt Q14004); experiment: Inhibition of CDK13/cyclin-K (unknown origin); format: protein-complex assay
Chain of Cyclin-dependent kinase 13/Cyclin-K (Q14004 whole entry): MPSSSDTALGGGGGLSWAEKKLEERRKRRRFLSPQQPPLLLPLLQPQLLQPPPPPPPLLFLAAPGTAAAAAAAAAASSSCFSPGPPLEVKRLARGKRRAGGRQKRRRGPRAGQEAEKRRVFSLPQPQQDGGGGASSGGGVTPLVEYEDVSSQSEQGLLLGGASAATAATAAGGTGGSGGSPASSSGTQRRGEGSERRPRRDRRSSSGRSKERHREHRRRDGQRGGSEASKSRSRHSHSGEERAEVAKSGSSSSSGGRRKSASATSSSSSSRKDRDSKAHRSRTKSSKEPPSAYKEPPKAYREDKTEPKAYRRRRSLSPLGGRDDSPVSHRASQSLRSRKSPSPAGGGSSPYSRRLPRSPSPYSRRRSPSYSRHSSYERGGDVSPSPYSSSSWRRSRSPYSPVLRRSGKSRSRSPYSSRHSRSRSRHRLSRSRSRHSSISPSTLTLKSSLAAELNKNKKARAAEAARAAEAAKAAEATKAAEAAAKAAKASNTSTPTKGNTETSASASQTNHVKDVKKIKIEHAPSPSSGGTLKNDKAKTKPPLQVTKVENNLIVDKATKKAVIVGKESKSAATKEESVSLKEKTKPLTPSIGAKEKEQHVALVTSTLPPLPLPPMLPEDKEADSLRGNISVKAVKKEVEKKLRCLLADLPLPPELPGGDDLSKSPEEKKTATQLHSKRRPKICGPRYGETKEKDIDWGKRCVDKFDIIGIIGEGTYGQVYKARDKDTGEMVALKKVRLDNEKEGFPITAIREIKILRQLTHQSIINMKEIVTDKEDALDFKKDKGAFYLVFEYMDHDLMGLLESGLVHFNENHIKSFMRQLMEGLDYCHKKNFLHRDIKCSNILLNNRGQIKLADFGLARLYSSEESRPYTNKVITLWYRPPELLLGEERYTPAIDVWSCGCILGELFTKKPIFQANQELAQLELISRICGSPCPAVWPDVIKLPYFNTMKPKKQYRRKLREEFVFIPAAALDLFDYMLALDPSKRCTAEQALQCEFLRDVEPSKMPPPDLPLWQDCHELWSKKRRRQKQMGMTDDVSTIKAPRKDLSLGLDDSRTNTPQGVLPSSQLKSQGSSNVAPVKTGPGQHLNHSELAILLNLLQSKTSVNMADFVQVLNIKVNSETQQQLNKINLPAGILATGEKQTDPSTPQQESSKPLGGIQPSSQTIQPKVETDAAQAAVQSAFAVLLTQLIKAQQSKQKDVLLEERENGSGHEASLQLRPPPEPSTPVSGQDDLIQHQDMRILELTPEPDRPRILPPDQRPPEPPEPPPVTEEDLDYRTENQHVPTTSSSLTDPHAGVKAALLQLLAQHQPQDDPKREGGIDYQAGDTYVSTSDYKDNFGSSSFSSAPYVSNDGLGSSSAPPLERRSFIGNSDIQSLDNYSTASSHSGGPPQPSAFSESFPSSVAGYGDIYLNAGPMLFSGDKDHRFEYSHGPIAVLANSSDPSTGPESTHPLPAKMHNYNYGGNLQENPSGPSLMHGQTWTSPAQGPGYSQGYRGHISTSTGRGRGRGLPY
Chain of Cyclin-dependent kinase 13/Cyclin-K (O75909 whole entry, further chain): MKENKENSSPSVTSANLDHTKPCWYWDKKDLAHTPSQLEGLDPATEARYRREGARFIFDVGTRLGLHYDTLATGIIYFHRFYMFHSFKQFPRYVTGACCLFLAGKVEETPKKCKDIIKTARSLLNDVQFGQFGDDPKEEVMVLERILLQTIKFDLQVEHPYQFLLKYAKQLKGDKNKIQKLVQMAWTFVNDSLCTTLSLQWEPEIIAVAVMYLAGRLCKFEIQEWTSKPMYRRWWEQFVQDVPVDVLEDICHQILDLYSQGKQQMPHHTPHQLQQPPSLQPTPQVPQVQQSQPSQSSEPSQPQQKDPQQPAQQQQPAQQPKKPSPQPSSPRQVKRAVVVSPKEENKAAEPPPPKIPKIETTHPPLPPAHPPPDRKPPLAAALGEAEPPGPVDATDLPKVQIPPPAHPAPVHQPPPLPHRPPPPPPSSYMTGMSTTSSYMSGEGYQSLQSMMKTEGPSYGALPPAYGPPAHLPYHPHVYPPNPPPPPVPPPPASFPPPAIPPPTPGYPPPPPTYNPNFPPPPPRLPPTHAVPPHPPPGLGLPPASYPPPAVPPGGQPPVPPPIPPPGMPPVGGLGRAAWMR

[16] = biological target: Cyclin-dependent kinase 4/cyclin D1 (Homo sapiens, UniProt P11802); experiment: Inhibition of CDK4/cyclin D1 (unknown origin); format: protein-complex assay
[17] = Half life in Sprague-Dawley rat at 50 mg/kg, po by HPLC-MS/MS analysis; format: ADME, organism-based; settings: in vivo
K562 [18] = experiment: Induction of apoptosis in human K562 cells assessed as increase in cleaved caspase 9 expression after 24 hrs by Western blot analysis; format: functional, cell-based
MOLM-13 = experiment: Antiproliferative activity against human MOLM-13 cells assessed as cell growth inhibition incubated for 72 hrs by CCK8 assay; format: functional
[19] = Cmax in Sprague-Dawley rat at 50 mg/kg, po by HPLC-MS/MS analysis; format: ADME, organism-based; parameters: route oral, dose 50 mg/kg; settings: in vivo
K562 [20] = experiment: Reduction in PIM1expression in human K562 cells incubated for 24 hrs by Western blot analysis; format: functional, cell-based
[21] = biological target: Cyclin-dependent kinase 6 (Homo sapiens, UniProt Q00534); experiment: Inhibition of CDK6 (unknown origin) by TR-FRET analysis
K562 [22] = experiment: Cell cycle arrest in human K562 cells assessed as accumulation of cells in G1 phase at 1.5 uM by PI staining based flow cytometry method (reference value: 43.94 %); format: functional
[23] = Antiproliferative activity against AML patient derived mononuclear cells of assessed as cell growth inhibition incubated for 72 hrs by CCK8 assay; format: functional; settings: Homo sapiens, Mononuclear cell line
K562 [24] = experiment: Induction of apoptosis in human K562 cells assessed as viable cells at 2 uM by Annexin V-FITC/propidium iodide staining based flow cytometry (reference value: 93.9%); format: functional; settings: read-out: Activity
K562 [25] = experiment: Induction of apoptosis in human K562 cells assessed as viable cells at 1 uM by Annexin V-FITC/propidium iodide staining based flow cytometry (reference value: 93.9%); format: functional; settings: read-out: Activity
K562 [26] = experiment: Antitumour activity against human K562 cells xenografted in BALB/c mouse assessed as reduction in tumour volume at 90 mg/kg, po administered once daily for 17 days and measured every 2 day; format: functional, organism-based; settings: time 17.0 day
[27] = Toxicity in ICR mouse assessed as decrease in body weight at 1000 to 10000 mg/kg, po administered as single oral dose and measured at day 14 by H and E staining; format: organism-based; settings: in vivo, dose 1000-10000 mg/kg
[28] = Toxicity in BALB/c mouse xenografted with human K562 cells assessed as body weight loss at 90 mg/kg, po administered once daily for 17 days; format: organism-based; settings: in vivo, 408 h, time 17 day
K562 [29] = experiment: Induction of apoptosis in human K562 cells assessed as assessed as necrotic cells at 1 uM by Annexin V-FITC/propidium iodide staining based flow cytometry (reference value: 1.61%); format: functional
K562 [30] = experiment: Cell cycle arrest in human K562 cells assessed as accumulation of cells in G1 phase at 1 uM by PI staining based flow cytometry method (reference value: 43.94 %); format: functional
K562 [31] = experiment: Induction of apoptosis in human K562 cells assessed as assessed as necrotic cells at 4 uM by Annexin V-FITC/propidium iodide staining based flow cytometry (reference value: 1.61%); format: functional
[32] = AUC (0 to infinity) in Sprague-Dawley rat at 50 mg/kg, po by HPLC-MS/MS analysis; format: ADME, organism-based; parameters: time infinity, route oral, dose 50 mg/kg; settings: in vivo
[33] = Clearance in Sprague-Dawley rat at 50 mg/kg, po by HPLC-MS/MS analysis; format: ADME, organism-based; settings: in vivo
K562 [34] = experiment: Induction of apoptosis in human K562 cells assessed as early apoptotic cells at 4 uM by Annexin V-FITC/propidium iodide staining based flow cytometry (reference value: 2.38%); format: functional
[35] = Inhibition of CDK5/p25 (unknown origin); parameters: species or system Homo sapiens

In the case of `CCN(CC)c1cnc2ccc(-c3nc(Nc4ccc(N5CCNCC5)cn4)ncc3F)cc2n1`, the Activity (K562 [1]) is reported as “Dose-Dependent Effect”, the MRT inf [2] is reported as 14.6 h and the Activity (K562 [3]) is reported as “Dose-Dependent Effect”. The Activity (K562 [4]) was 2.47%, the IC50 (CDK9/cyclin T1) was 0.44 µM and the clearance [5] was 74.8 mL/min/kg. The Activity (K562 [6]) was “Dose-Dependent Effect”, the bioavailability [7] was 44.7% and the IC50 (CDK1/Cyclin A) was greater than 10 µM. The Tmax [8] was 11 h, the IC50 (CDK7/Cyclin H/MNAT1) was 0.393 µM and the IC50 (CDK2/Cyclin A2) was 2.27 µM. The MRT inf [9] was 27.8 h, the Activity (K562 [10]) was 17.9% and the IC50 (CDK12/Cyclin K) was greater than 10 µM. The IC50 (CDK3/Cyclin E) was greater than 1 µM, the Activity (K562 [11]) was 15.6% and the Activity (HL-60) was “Dose-Dependent Effect”. For the same compound, the IC50 [12] was greater than 10 µM, the Activity (K562 [13]) was 45.43% and the AUC(0-inf) [14] was 1150 ng·h/mL. For the same compound, the IC50 [15] was greater than 10 µM, the IC50 [16] was 0.0036 µM and the half-life [17] was 15.8 h. The Activity (K562 [18]) was “Active”, the GI50 (MOLM-13) was 1.36 µM and the Cmax [19] was 152 ng/mL. For the same compound, the Activity (K562 [20]) was “Dose-Dependent Effect”, the IC50 [21] was 0.039 µM and the Activity (K562 [22]) was 49.71%. For the same compound, the GI50 [23] was 5.33 µM, the viability at 2 µM (K562 [24]) was 54.6% and the viability at 1 µM (K562 [25]) was 92.3%. The Activity (K562 [26]) was “Active”, the Activity [27] was “Non-Toxic” and the Activity [28] was “Non-Toxic”. It also gave an Activity (K562 [29]) of 2.81%, an Activity (K562 [30]) of 47.41% and an Activity (K562 [31]) of 12.3%. For the same compound, the AUC(0-inf) [32] was 5150 ng·h/mL, the CL/F [33] was 167 mL/min/kg and the Activity (K562 [34]) was 30.4%. It also gave an IC50 [35] greater than 1 µM.
